Test results as given in the SangsterLogP compilation.

SMILES: O=C(O[C@@H]1O[C@H](CO)[C@@H](O)[C@H](O)[C@H]1O)c1cc(O)c(O)c(O)c1
- logP: -1.89

SMILES: O=C(OCC1OC(OC(=O)c2cc(O)c(O)c(O)c2)C(O)C(O)C1O)c1cc(O)c(O)c(O)c1 (stereo not given)
- logP: -0.33

SMILES: O=C(O[C@@H]1O[C@@H]2COC(=O)c3cc(O)c(O)c(O)c3-c3c(cc(O)c(O)c3O)C(=O)O[C@H]([C@H]1O)[C@@H]2O)c1cc(O)c(O)c(O)c1
- logP: -1.19

SMILES: O=C(O[C@@H]1O[C@@H]2COC(=O)c3cc(O)c(O)c(O)c3-c3c(cc(O)c(O)c3O)C(=O)O[C@H]2[C@@H]2OC(=O)c3cc(O)c(O)c(O)c3-c3c(cc(O)c(O)c3O)C(=O)O[C@@H]12)c1cc(O)c(O)c(O)c1
- logP: -1.07

SMILES: O=C(OC[C@H]1OC(O)[C@@H]2OC(=O)c3cc(O)c(O)c(O)c3-c3c(cc(O)c(O)c3O)C(=O)O[C@H]2[C@@H]1OC(=O)c1cc(O)c(O)c(O)c1-c1c(O)c(O)c2oc(=O)c3cc(O)c(O)c4oc(=O)c1c2c43)c1cc(O)c(O)c(O)c1 (stereo not given in full)
- logP: -2.15

SMILES: O=C(O[C@@H]1Cc2c(O)cc(O)cc2O[C@@H]1c1cc(O)c(O)c(O)c1)c1cc(O)c(O)c(O)c1
- logP: 1.08

SMILES: O=CC(O)(COC(=O)c1cc(O)c(O)c(O)c1)C(O)C(O)COC(=O)c1cc(O)c(O)c(O)c1 (stereo not given)
- logP: -0.35

SMILES: O=C(OCC1O[C@@H](O)C(O)(COC(=O)c2cc(O)c(O)c(O)c2)C1OC(=O)c1cc(O)c(O)c(O)c1)c1cc(O)c(O)c(O)c1 (stereo not given in full)
- logP: 0.61

SMILES: Oc1cc(O)c2c(c1)OC(c1ccc(O)c(O)c1)C(O)C2c1c(O)cc(O)c2c1O[C@H](c1ccc(O)c(O)c1)[C@@H](O)C2 (stereo in doubt)
- logP: -0.52

SMILES: O=C(O[C@@H]1COC(=O)c2cc(O)c(O)c(O)c2-c2c(cc(O)c(O)c2O)C(=O)OC1[C@@H]1OC(=O)c2cc(O)c(O)c(O)c2-c2c(O)c(O)c(O)c3c2C(=O)O[C@H]1[C@H]3O)c1cc(O)c(O)c(O)c1 (stereo not given in full)
- logP: 1.28

SMILES: O=C1OC[C@H]2OC(O)[C@@H]3OC(=O)c4cc(O)c(O)c(O)c4-c4c(cc(O)c(O)c4O)C(=O)O[C@H]3[C@@H]2OC(=O)c2cc(O)c(O)c(O)c2-c2c1cc(O)c(O)c2O (stereo not given in full)
- logP: -2.1

SMILES: COc1cc(O)c2c(=O)cc(C)oc2c1
- logP: 1

SMILES: O=CC1OC(=O)c2cc(O)c(O)c(O)c2-c2c(cc(O)c(O)c2O)C(=O)OC1C1OC(=O)c2cc(O)c(O)c(O)c2-c2c(O)c(O)c3oc(=O)c4c(c(O)c(O)c5oc(=O)c2c3c54)-c2c(cc(O)c(O)c2O)C(=O)OCC1O (stereo not given)
- logP: -2.7

SMILES: O=C(O[C@H]1Cc2c(O)cc(O)cc2O[C@H]1c1ccc(O)c(O)c1)c1cc(O)c(O)c(O)c1
- logP: 1.68

SMILES: O=c1c(O[C@@H]2O[C@H](CO)[C@@H](O)[C@H](O)[C@H]2O)c(-c2ccc(O)c(O)c2)oc2cc(O)cc(O)c12
- logP: 0.7
